{
  "source": "patent US20220031684A1",
  "about": "“PROPHYLACTIC EFFICACY OF SEROTONIN 4 RECEPTOR AGONISTS AGAINST STRESS” (THE TRUSTEES OF COLUMBIA UNIVERSITY IN THE CITY OF NEW YORK, priority 2019, published 2022)",
  "key": {"129S6/SvEv mice [1]": {"test_system": "129S6/SvEv mice", "test": "3-shock contextual fear conditioning (CFC)", "format": "in vivo", "description": "(§1) This chronic CORT elevation dysregulates the hypothalamic-pituitary-adrenal axis (HPA) in a manner similar to that observed in clinical depression. The dose and duration of CORT treatment was selected based on previous studies. CORT (35 μg/ml, equivalent to about 5 mg/kg/day) dissolved in 0.45% hydroxypropyl-o-cyclodextrin (0-CD) or vehicle (VEH) (0.45% j-CD) was available ad libitum in the drinking water in opaque bottles to protect it from light. VEH- and CORT-treated water was changed every 3 days to prevent possible degradation. Contextual Fear Conditioning (CFC): A 3-shock CFC procedure was administered as previously published. Briefly, mice were placed into context A and administered 3 2-s shocks (0.75 mA) at 180 s, 240 s or 300 s following placement into context A. Mice were removed from the context 15 s following the termination of shock (at 317 s). For context retrieval, mice were placed back into context A for 300 s. Electrophysiology: Electrophysiology was conducted as previously described. Statistical Analysis: Results from data analyses are expressed as means±SEM. Alpha was set to 0.05 for all analyses. Data were analyzed using GraphPad Prism v7.0 or v8.0. For all experiments, unless otherwise noted, one- or two-way ANOVAs with repeated-measures were applied to the data as appropriate. Significant main effects and/or interactions were followed by Fisher's PLSD post hoc analysis or unpaired t-tests. Drugs: All drugs were prepared in physiological saline and all injections were administered intraperitoneally (i.p.) in volumes of 0.1 cc per […] body weight unless otherwise noted. Fluoxetine hydrochloride (Flx): Flx (BioTrend Chemicals AG, BG197, Zurich, Germany) was administered in the drinking water (18 mg/kg/day) for 3 weeks before the start of CORT. […] (R,S)-ketamine (K): (R,S)-ketamine (Ketaset III, Ketamine HCl injection, Fort Dodge Animal Health, Fort Dodge, Iowa) was administered in a single dose at 30 mg/kg of body weight 1 week before the start of CFC. […] PF-04995274: PF-04995274 (Sigma, Catalog No. 1331782-27-4, St. Louis, Mo.) was administered a single dose at 3 or 10 mg/kg of body weight 1 week before the start of CFC. PF-04995274 was dissolved in saline using an ultrasonic homogenizer (BioLogics, Model 3000, Manassas, Va.). Osmotic minipump implantation: ALZET osmotic minipumps (Model 2004, […], 28 days) were implanted subcutaneously under isoflurane anesthesia as previously described [S2]. Osmotic minipumps were rotated under the skin two to three times per week. Behavioral Assays: All experiments were approved by the Institutional Animal Care and Use Committee (IACUC) at the New York Psychiatric Institute (NYSPI). Elevated Plus Maze (EPM): Testing was performed as previously described [S3]. Briefly, the maze is a plus-cross-shaped apparatus consisting of four arms, two open and two enclosed by walls, linked by a central platform at a height of 50 cm from the floor. Mice were individually placed in the center of the maze facing an open arm and were allowed to explore the maze for 5 min. The time spent in and the number of entries into the open arms was used as an anxiety index. Videos were scored using ANY-maze behavior tracking software (Stoelting, Wood Dale, Ill.). Novelty-Suppressed Feeding: The NSF is a conflict test that elicits competing motivations: the drive to eat and the fear of venturing into the center of a brightly lit arena. The latency to feed is used as an index of anxiety-like behavior, because classical anxiolytic drugs decrease this measure. The NSF test was carried out during an 8 min period as previously described [S3]. Briefly, the testing apparatus consisted of a plastic box (50×50×20 cm), the floor of which was covered with approximately 2 cm of bedding. For 129S6/SvEv experiments, mice were food restricted for 12 h. For the C57BL/6N experiments, mice were food restricted for 24 h. […]"}, "129S6/SvEv mice [2]": {"test_system": "129S6/SvEv mice", "test": "Forced swim test (FST) after CFC", "format": "in vivo", "description": "as §1"}, "CA3 pyramidal cells": {"test_system": "CA3 pyramidal cells", "test": "Whole-cell voltage clamp recordings of spontaneous EPSCs in CA3 slices", "format": "cell-based, mice", "conditions": "(R,S)-ketamine 30 mg/kg or prucalopride 3 mg/kg injected 1 week before slicing", "description": "as §1"}, "5-HT4R": {"target": "5-HT4R", "conditions": "cited from earlier work"}, "[3]": {"target": "hERG (human Ether-a-go-go Related Gene) channels (Homo sapiens, UniProt Q12809)", "sequence (Q12809 whole entry)": "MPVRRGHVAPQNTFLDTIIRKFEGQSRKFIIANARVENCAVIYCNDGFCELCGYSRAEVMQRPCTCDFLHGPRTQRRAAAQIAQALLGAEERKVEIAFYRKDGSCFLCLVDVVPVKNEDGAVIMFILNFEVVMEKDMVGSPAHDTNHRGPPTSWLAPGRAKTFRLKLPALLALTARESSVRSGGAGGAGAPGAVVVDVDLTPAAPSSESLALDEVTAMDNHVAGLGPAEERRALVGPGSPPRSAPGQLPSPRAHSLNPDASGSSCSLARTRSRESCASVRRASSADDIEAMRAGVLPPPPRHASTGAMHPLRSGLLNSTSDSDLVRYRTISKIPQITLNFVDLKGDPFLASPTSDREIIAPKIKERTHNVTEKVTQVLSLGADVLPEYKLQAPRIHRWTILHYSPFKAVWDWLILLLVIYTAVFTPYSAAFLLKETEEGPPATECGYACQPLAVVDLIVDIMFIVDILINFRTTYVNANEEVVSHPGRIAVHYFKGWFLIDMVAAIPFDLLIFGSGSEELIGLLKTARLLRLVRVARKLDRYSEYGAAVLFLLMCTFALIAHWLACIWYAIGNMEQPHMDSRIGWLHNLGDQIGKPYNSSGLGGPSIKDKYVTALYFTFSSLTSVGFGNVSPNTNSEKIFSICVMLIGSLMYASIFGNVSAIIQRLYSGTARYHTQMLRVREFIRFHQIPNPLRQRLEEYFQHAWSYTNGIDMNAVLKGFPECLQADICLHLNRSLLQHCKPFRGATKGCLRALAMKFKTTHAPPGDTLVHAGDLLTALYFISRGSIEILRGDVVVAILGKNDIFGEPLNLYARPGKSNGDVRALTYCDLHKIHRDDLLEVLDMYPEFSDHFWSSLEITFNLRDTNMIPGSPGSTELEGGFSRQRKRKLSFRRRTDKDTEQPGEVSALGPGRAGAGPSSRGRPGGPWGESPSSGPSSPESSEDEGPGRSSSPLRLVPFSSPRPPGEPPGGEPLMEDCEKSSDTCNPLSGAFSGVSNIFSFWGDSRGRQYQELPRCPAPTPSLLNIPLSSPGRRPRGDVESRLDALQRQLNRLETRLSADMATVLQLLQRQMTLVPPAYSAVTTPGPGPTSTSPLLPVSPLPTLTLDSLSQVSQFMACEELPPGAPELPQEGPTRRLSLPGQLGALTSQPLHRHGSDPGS", "conditions": "cited from earlier work"}, "[4]": {"conditions": "FIG. 4 cohort, Male, FIG. 4C, RMANOVA, Fisher's LSD"}, "[5]": {"conditions": "FIG. 4 cohort, Male, FIG. 4D, ANOVA, Fisher's LSD"}, "[6]": {"conditions": "FIG. 4 cohort, Male, FIG. 4F, RMANOVA, Fisher's LSD"}, "[7]": {"conditions": "FIG. 4 cohort, Male, FIG. 4G, ANOVA, Fisher's LSD"}},
  "note": "Structures can show the parent of a compound that is named as a salt.",
  "data": [
    {"smiles": "COCCCN1CCC(NC(=O)c2cc(Cl)c(N)c3c2OCC3)CC1", "note": "[Prucalopride, 4-amino-5-chloro-2,3-dihydro-N-[1-3-methoxypropyl)-4-piperidinyl]-7-benzofuran carboxamide monohydrochloride]", "values": [
      {"measurement": "p, CFC Re-exposure Freezing (%), Prucalopride (3 mg/kg) vs. PF04995274 (3 mg/kg)", "setting": "129S6/SvEv mice [1]; [4]", "value": 0.0014},
      {"measurement": "p, CFC Re-exposure Freezing (%), Prucalopride (3 mg/kg) vs. PF04995274 (10 mg/kg)", "setting": "129S6/SvEv mice [1]; [4]", "value": 0.2229},
      {"measurement": "p, CFC Re-exposure Freezing (%), Prucalopride (3 mg/kg) vs. Prucalopride (10 mg/kg)", "setting": "129S6/SvEv mice [1]; [4]", "value": 0.0004},
      {"measurement": "p, CFC Re-exposure Freezing (%), Prucalopride (10 mg/kg) vs. PF04995274 (3 mg/kg)", "setting": "129S6/SvEv mice [1]; [4]", "value": 0.7981},
      {"measurement": "p, CFC Re-exposure Freezing (%), Prucalopride (10 mg/kg) vs. PF04995274 (10 mg/kg)", "setting": "129S6/SvEv mice [1]; [4]", "value": 0.0568},
      {"measurement": "p, CFC Re-exposure Freezing (%), Saline vs. Prucalopride (3 mg/kg)", "setting": "129S6/SvEv mice [1]; [4]", "value": 0.0004},
      {"measurement": "p, CFC Re-exposure Freezing (%), Saline vs. Prucalopride (10 mg/kg)", "setting": "129S6/SvEv mice [1]; [4]", "value": 0.4723},
      {"measurement": "p, CFC Re-exposure, Prucalopride (3 mg/kg) vs. PF04995274 (3 mg/kg)", "setting": "129S6/SvEv mice [1]; [5]", "value": 0.0014},
      {"measurement": "p, CFC Re-exposure, Prucalopride (3 mg/kg) vs. PF04995274 (10 mg/kg)", "setting": "129S6/SvEv mice [1]; [5]", "value": 0.2229},
      {"measurement": "p, CFC Re-exposure, Prucalopride (3 mg/kg) vs. Prucalopride (10 mg/kg)", "setting": "129S6/SvEv mice [1]; [5]", "value": 0.0004},
      {"measurement": "p, CFC Re-exposure, Prucalopride (10 mg/kg) vs. PF04995274 (3 mg/kg)", "setting": "129S6/SvEv mice [1]; [5]", "value": 0.7981},
      {"measurement": "p, CFC Re-exposure, Prucalopride (10 mg/kg) vs. PF04995274 (10 mg/kg)", "setting": "129S6/SvEv mice [1]; [5]", "value": 0.0568},
      {"measurement": "p, CFC Re-exposure, Saline vs. Prucalopride (3 mg/kg)", "setting": "129S6/SvEv mice [1]; [5]", "value": 0.0004},
      {"measurement": "p, CFC Re-exposure, Saline vs. Prucalopride (10 mg/kg)", "setting": "129S6/SvEv mice [1]; [5]", "value": 0.4723},
      {"measurement": "freezing during CFC training", "setting": "129S6/SvEv mice [1]; male 129S6/SvEv, (R,S)-ketamine 30, prucalopride 3 or 10, PF-04995274 3 or 10 mg/kg, 1 week before CFC, vs saline", "value": "comparable levels of freezing"},
      {"measurement": "freezing at re-exposure to the training context (learned fear) vs saline", "setting": "129S6/SvEv mice [1]; male 129S6/SvEv, single i.p. injection 1 week before CFC, re-exposure 5 days later, 3 mg/kg", "value": "attenuated learned fear"},
      {"measurement": "p, FST Day 2 Immobility Time (sec), Prucalopride (3 mg/kg) vs. PF04995274 (3 mg/kg)", "setting": "129S6/SvEv mice [2]; [6]", "value": 0.2475},
      {"measurement": "p, FST Day 2 Immobility Time (sec), Prucalopride (3 mg/kg) vs. PF04995274 (10 mg/kg)", "setting": "129S6/SvEv mice [2]; [6]", "value": 0.4224},
      {"measurement": "p, FST Day 2 Immobility Time (sec), Prucalopride (3 mg/kg) vs. Prucalopride (10 mg/kg)", "setting": "129S6/SvEv mice [2]; [6]", "value": 0.0568},
      {"measurement": "p, FST Day 2 Immobility Time (sec), Prucalopride (10 mg/kg) vs. PF04995274 (3 mg/kg)", "setting": "129S6/SvEv mice [2]; [6]", "value": 0.6674},
      {"measurement": "p, FST Day 2 Immobility Time (sec), Prucalopride (10 mg/kg) vs. PF04995274 (10 mg/kg)", "setting": "129S6/SvEv mice [2]; [6]", "value": 0.0209},
      {"measurement": "p, FST Day 2 Immobility Time (sec), Saline vs. Prucalopride (3 mg/kg)", "setting": "129S6/SvEv mice [2]; [6]", "value": 0.0052},
      {"measurement": "p, FST Day 2 Immobility Time (sec), Saline vs. Prucalopride (10 mg/kg)", "setting": "129S6/SvEv mice [2]; [6]", "value": 0.1772},
      {"measurement": "p, FST Day 2 Immobility Time (min 3-6) (sec), Prucalopride (3 mg/kg) vs. PF04995274 (3 mg/kg)", "setting": "129S6/SvEv mice [2]; [7]", "value": 0.4089},
      {"measurement": "p, FST Day 2 Immobility Time (min 3-6) (sec), Prucalopride (3 mg/kg) vs. PF04995274 (10 mg/kg)", "setting": "129S6/SvEv mice [2]; [7]", "value": 0.3387},
      {"measurement": "p, FST Day 2 Immobility Time (min 3-6) (sec), Prucalopride (3 mg/kg) vs. Prucalopride (10 mg/kg)", "setting": "129S6/SvEv mice [2]; [7]", "value": 0.0622},
      {"measurement": "p, FST Day 2 Immobility Time (min 3-6) (sec), Prucalopride (10 mg/kg) vs. PF04995274 (3 mg/kg)", "setting": "129S6/SvEv mice [2]; [7]", "value": 0.4653},
      {"measurement": "p, FST Day 2 Immobility Time (min 3-6) (sec), Saline vs. Prucalopride (3 mg/kg)", "setting": "129S6/SvEv mice [2]; [7]", "value": 0.0093},
      {"measurement": "p, FST Day 2 Immobility Time (min 3-6) (sec), Saline vs. Prucalopride (10 mg/kg)", "setting": "129S6/SvEv mice [2]; [7]", "value": 0.2443},
      {"measurement": "p, FST Day 2 Immobility Time (min 3-6) (sec), Prucalopride (10 mg/kg) vs. PF04995274", "setting": "129S6/SvEv mice [2]; FIG. 4 cohort, Male, FIG. 4G, ANOVA, Fisher's LSD, PF04995274 dose stands below the shown rows", "value": 0.0156},
      {"measurement": "immobility, FST day 1", "setting": "129S6/SvEv mice [2]; male 129S6/SvEv, (R,S)-ketamine 30, prucalopride 3 or 10, PF-04995274 3 or 10 mg/kg", "value": "comparable levels of immobility"},
      {"measurement": "immobility time, FST day 2 vs saline", "setting": "129S6/SvEv mice [2]; male 129S6/SvEv, single injection 1 week before CFC, 3 mg/kg", "value": "decreased immobility time"},
      {"measurement": "average EPSC amplitude vs saline", "setting": "CA3 pyramidal cells", "value": "no differences"},
      {"measurement": "large AMPA receptor-mediated bursts of EPSCs", "setting": "CA3 pyramidal cells", "value": "not present"},
      {"measurement": "number of EPSCs vs saline", "setting": "CA3 pyramidal cells", "value": "no differences"},
      {"measurement": "Affinity (pKi)", "setting": "5-HT4R", "value": "8.1-8.6"},
      {"measurement": "affinity for the hERG channels", "setting": "[3]", "value": "no affinity"}
    ]}
  ]
}
